Test results: article PMC8401465, “In Vitro Testing of Alternative Synthetic and Natural Antiparasitic Compounds against the Monogenean Sparicotyle chrysophrii” (Pathogens, 2021)
Where two headings read alike, the source gives them in different places.

Key:
Vibrio anguillarum = experiment: Bactericidal activity (MTT), Vibrio anguillarum; type: cell-based; conditions: for inhibition at 0.1 µM / inhibition at 1 µM / inhibition at 10 µM: Vibrio anguillarum; for antimicrobial activity against V. anguillarum / antibacterial activity against V. anguillarum: p < 0.05; for antibacterial activity against V. anguillarum: among the natural compounds
Protocol: (§1) Two bacterial fish pathogens, Vibrio harveyi and V. anguillarum were used to test the bactericidal activity of the target compounds, being previously isolated and identified as described in [65]. Lab strains were maintained at −20 °C in Tryptone Soy Broth (TSB, Difco Laboratories, Inc., Detroit, MI, USA) supplemented with 1% (w/v) NaCl (TSB1) and 50% (v/v) glycerol. […] Bacteria in TSB medium were then cultured at the same temperature with continuous shaking (100 rpm) for 24 h. Exponentially grown bacteria were resuspended in sterile PBS and adjusted to the concentration of 10^8 colony forming units (cfu)/mL. Each target compound (20 μL; concentrations 0.1, 1, and 10 µM) was added (in triplicates) to the wells of a flat-bottom 96-well plate, except for the positive control that consisted of 0.5% DMSO in PBS. Aliquots of 20 μL of the previously cultured bacteria were added, and the plate was incubated for 5 h at 25 °C. […] The plate was then centrifuged (4500 rpm, 10 min) and the precipitate dissolved in 200 μL of DMSO. The solution (100 μL) from each well was transferred to another flat-bottom 96-well plate. The absorbance of the dissolved formazan was measured at 570 nm. Bactericidal activity was expressed as percentage of nonviable bacteria, calculated as the difference between absorbance of surviving bacteria compared to the absorbance of bacteria in positive controls (100%).

Vibrio harveyi = experiment: Bactericidal activity (MTT), Vibrio harveyi; type: cell-based; conditions: for antimicrobial activity against V. harveyi: p < 0.05; for inhibition at 0.1 µM / inhibition at 1 µM / inhibition at 10 µM: Vibrio harveyi; for bactericidal activity against V. harveyi: synthetic compounds, at increased concentrations
Protocol: as §1

[1] = test system: Sparicotyle chrysophrii adults; experiment: microbe, parasite or virus in culture; conditions: for LC20 (95% CI), toxicity level for adult S. chrysophrii: 20% mortality; for LC80 (95% CI), toxicity level for adult S. chrysophrii: 80% mortality; for LC50: read-out: LC50 (95% CI), toxicity level for adult S. chrysophrii; for b (SE), slope of dose–response model / e (SE), midpoint of dose–response model: Weibull type 2, c = 0, d = 1, mortality at 4 h post-exposure; for fold lower toxicity for S. chrysophrii than curcumin: comparison with curcumin; for fold less toxic for S. chrysophrii than eucalyptol and garlicin 80%: comparison with eucalyptol and garlicin 80%
Protocol: Subsequently, the monogeneans (n = 6, in triplicate) were exposed to a range of seven concentrations tailored according to each compound’s activity observed in preliminary tests. The range for each compound was scaled down to an appropriate order of magnitude so that each compound reached 100% mortality at 4 h post-exposure (Table 1).
For the dose–response curve fitting, the drc package for R (v4.0.4) was used. An appropriate nonlinear regression model was selected between log-logistic and Weibull type models, based on the Akaike information criterion (AIC) and lack-of-fit test criteria through the use of mselect function. The best scoring model was Weibull type 2 model (asymmetrical) with lower and upper limits fixed to 0 and 1, respectively, as mortality in all assays reached 100%. […] Model parameters and estimated lethal doses (20%, 50%, and 80%) were calculated with standard errors and 95% confidence intervals, based on the delta method, respectively, and adjusted for simultaneous inference through multcomp package. Dose–response curves were visualised using ggplot2 library.

[2] = test system: Sparicotyle chrysophrii adults; experiment: microbe, parasite or virus in culture; conditions: for mortality at 1000 µM: Sparicotyle chrysophryii
Protocol: Firstly, the adult monogeneans were exposed to a range of four concentrations of tested compounds encompassing the full dose–response range; each compound stock at 10 mM was serially diluted 10 (1 mM), 10^2 (0.1 mM), 10^3 (0.01 mM), and 10^4 (1 µM) times. […] Ten monogeneans per well (in triplicate) were added to 2 mL sterile seawater (SW) in 6-well plates, checked at the stereomicroscope for visible signs of mechanical damage, and exposed to selected concentrations in the dark at room temperature (Table 1). The number of live/dead parasites was recorded under the stereomicroscope at 1, 4, 12, and 24 h post-exposure. S. chrysophrii was considered to be alive if it performed any type of movement autonomously or 5 s after gentle probing with a dissection needle. Negative controls comprised the seawater with up to 0.5% of DMSO in total volume, the latter used as a solvent for each compound.

[3] = 0.1 µM, 5 h at 25 °C, read-out: Bactericidal activity (%)
[4] = 1 µM, 5 h at 25 °C, read-out: Bactericidal activity (%)
[5] = 10 µM, 5 h at 25 °C, read-out: Bactericidal activity (%)
[6] = 50% mortality, 4 h post-exposure
[7] = 5 h, read-out: Bactericidal activity (%)

Row | Compound | potency / effect against V. anguillarum as judged in the discussion (Vibrio anguillarum) | inhibition at 0.1 µM (Vibrio anguillarum; [3]) | inhibition at 1 µM (Vibrio anguillarum; [4]) | inhibition at 10 µM (Vibrio anguillarum; [5]) | antimicrobial activity against V. harveyi (Vibrio harveyi; 10 µM) | inhibition at 0.1 µM (Vibrio harveyi; [3]) | inhibition at 1 µM (Vibrio harveyi; [4]) | inhibition at 10 µM (Vibrio harveyi; [5]) | LC20 (95% CI), toxicity level for adult S. chrysophrii ([1]; 4 h post-exposure) | LC80 (95% CI), toxicity level for adult S. chrysophrii ([1]; 4 h post-exposure) | b (SE), slope of dose–response model [1] | e (SE), midpoint of dose–response model [1] | inhibition (Vibrio anguillarum; [3]) | inhibition (Vibrio anguillarum; [4]) | inhibition (Vibrio anguillarum; [5]) | inhibition (Vibrio harveyi; [3]) | inhibition (Vibrio harveyi; [4]) | inhibition (Vibrio harveyi; [5]) | LC50 [1, 6] | also measured
1 | CC12CCC(CC1)C(C)(C)O2 [Eucalyptol] | ineffective against V. anguillarum | -31.7 ± 156% | -34.1 ± 10.5% | 23.6 ± 3.1% | significant antimicrobial activity | -2.7 ± 8.7% | -1.9 ± 12.3% | 50.3 ± 6.8% | 0.5 (0.38–0.63) mM | 0.83 (0.71–0.94) mM | 3.99 (0.7) | 0.74 (0.03) |  |  |  |  |  |  |  | potency / effect against V. harveyi as judged in the discussion (Vibrio harveyi): highest anti-Vibrio harveyi effect among tested natural compounds; LC50 ([1]; Sparicotyle chrysophryii, 4 h): 670 µM; fold lower toxicity for S. chrysophrii than curcumin [1]: approximately 3
2 | C=CCSCC=C [Diallyl sulphide] |  | -11.3 ± 24.8% | -5.8 ± 11.7% | 46.8 ± 4% |  | -36.6 ± 6.8% | -36.4 ± 7.9% | -1.6 ± 0.7% |  |  |  |  |  |  |  |  |  |  |  | mortality at 1000 µM ([2]; 24 h): 100%; antimicrobial activity against V. anguillarum (Vibrio anguillarum; 10 µM): best antimicrobial activity
3 | C=CCSSCC=C [Garlicin 80%] | ineffective against V. anguillarum |  |  |  | significant antimicrobial activity |  |  |  | 0.4 (0.27–0.53) mM | 0.81 (0.66–0.95) mM | 2.79 (0.49) | 0.68 (0.04) | -110 ± 84.2% | -46 ± 17.2% | -52.1 ± 31.4% | 20.9 ± 19.9% | 28.7 ± 6.2% | 42 ± 1.3% | 600 µM | potency / effect against V. harveyi as judged in the discussion (Vibrio harveyi): highest anti-Vibrio harveyi effect among tested natural compounds; fold lower toxicity for S. chrysophrii than curcumin [1]: approximately 3
4 | CC(C)=C[C@@H]1[C@@H](C(=O)O)C1(C)C (relative stereo) [(+)-trans-Chrysanthemic acid] | the effect was observed only against V. anguillarum |  |  |  |  |  |  |  | 0.58 (0.43–0.74) mM | 1.1 (0.79–1.41) mM | 3.12 (0.69) | 0.94 (0.07) | -1.4 ± 13% | 8.15 ± 16.3% | 32 ± 9% | -47.7 ± 5.9% | -25.4 ± 14.6% | 13.2 ± 6.5% | 840 µM | antibacterial activity against V. anguillarum (Vibrio anguillarum): strongest antibacterial activity; fold less toxic for S. chrysophrii than eucalyptol and garlicin 80% [1]: approximately 1.2
5 | 1R-Camphor |  |  |  |  |  |  |  |  | 0.71 (0.53–0.89) mM | 1.1 (0.94–1.26) mM | 4.54 (0.91) | 0.99 (0.05) | -38.8 ± 22% | -27.8 ± 19% | -17.4 ± 9.3% | -23.6 ± 2.6% | 7.7 ± 10.7% | 9.3 ± 7.4% | 910 µM | fold less toxic for S. chrysophrii than eucalyptol and garlicin 80% [1]: approximately 1.2
6 | O=c1ccc2ccccc2o1 [Coumarin] |  | 1.5 ± 8.38% | 13.2 ± 13.4% | 17.3 ± 5% |  | -33.4 ± 3.9% | -21.2 ± 13.3% | -1.9 ± 7.6% |  |  |  |  |  |  |  |  |  |  |  | mortality at 1000 µM ([2]; 24 h): 100%; antibacterial activity against V. anguillarum (Vibrio anguillarum): strongest antibacterial activity
7 | CCN(CC)C(=O)c1cccc(C)c1 [N,N-diethyl-M-toluamide, reference compound] |  |  |  |  |  |  |  |  |  |  |  |  |  |  |  |  |  |  |  | mortality ([2]; highest concentration (1 mM), already after 1 h): 100%; inhibition (Vibrio anguillarum; 0.1 µM): -61.9 ± 29%; inhibition (Vibrio anguillarum; 1 µM): -28.5 ± 24.1%; inhibition (Vibrio anguillarum; 10 µM): 9.1 ± 8.5%; inhibition (Vibrio harveyi; 0.1 µM): -0.9 ± 8.7%; inhibition (Vibrio harveyi; 1 µM): 4.5 ± 16.7%; inhibition (Vibrio harveyi; 10 µM): 13.7 ± 0.6%; bactericidal activity against V. harveyi (Vibrio harveyi): significant bactericidal activity
8 | C[C@H]1C(=O)O[C@@H]2CCN3CC=C(COC(=O)[C@](C)(O)[C@]1(C)O)[C@H]23 [Monocrotaline] |  |  |  |  | significant antimicrobial activity |  |  |  |  |  |  |  |  |  |  |  |  |  |  | mortality at 1000 µM ([2]; 1 h): 100%; inhibition at 0.1 µM (Vibrio anguillarum; [7]): -73 ± 56.1%; inhibition at 1 µM (Vibrio anguillarum; [7]): -46.9 ± 32%; inhibition at 10 µM (Vibrio anguillarum; [7]): 17.9 ± 0.6%; inhibition at 0.1 µM (Vibrio harveyi; [7]): -4.9 ± 24.9%; inhibition at 1 µM (Vibrio harveyi; [7]): 18.2 ± 10.9%; inhibition at 10 µM (Vibrio harveyi; [7]): 40.1 ± 4.1%
9 | Oc1c(Cl)cc(Cl)cc1Sc1cc(Cl)cc(Cl)c1O [Bithionate sodium, 2,2′-sulfanediylbis(4,6-dichlorophenolate), reference compound] |  |  |  |  |  |  |  |  | 0.003 (0.002–0.005) mM | 0.01 (0.01–0.01) mM | 1.93 (0.36) | 0.01 (0.001) | 4.9 ± 11.8% | 49.2 ± 11.6% | 96.4 ± 1.7% | -8.8 ± 1.8% | 3.5 ± 11.6% | 40 ± 0.7% | 5 to 10 µM | antimicrobial activity against V. anguillarum (Vibrio anguillarum; 10 µM): best antimicrobial activity; bactericidal activity against V. harveyi (Vibrio harveyi): significant bactericidal activity
